Calls of active or inactive are those of the source. The rule behind the calls is not given here.
Tests used:
[1] = tested on: Mus musculus; assay: Hypoglycemic activity in six hrs fasted C57BL6/J mouse assessed as reduction in blood glucose level at 30 nmol/kg, sc measured upto 120 mins post injection by glucometer analysis; assay type: functional, organism-based
[2] = tested on: Mus musculus; assay: Hypoglycemic activity in six hrs fasted C57BL6/J mouse assessed as improvement in glucose disposal at 30 nmol/kg, sc pre-administered with compound for 60 mins followed by glucose addition and measured upto 120 mins; assay type: functional, organism-based; conditions: time <= 180.0 min
[3] = biological target: Glucagon-like peptide 1 receptor (Homo sapiens) (UniProt P43220); assay: Agonist activity human GLP-1R stably expressed in HEK293-A cells assessed as […] in cAMP accumulation incubated for 30 mins by fluorescence resonance energy transfer analysis; assay type: functional, cell-based; conditions: filed as agonist
Sequence of Glucagon-like peptide 1 receptor (Homo sapiens) (P43220 whole entry): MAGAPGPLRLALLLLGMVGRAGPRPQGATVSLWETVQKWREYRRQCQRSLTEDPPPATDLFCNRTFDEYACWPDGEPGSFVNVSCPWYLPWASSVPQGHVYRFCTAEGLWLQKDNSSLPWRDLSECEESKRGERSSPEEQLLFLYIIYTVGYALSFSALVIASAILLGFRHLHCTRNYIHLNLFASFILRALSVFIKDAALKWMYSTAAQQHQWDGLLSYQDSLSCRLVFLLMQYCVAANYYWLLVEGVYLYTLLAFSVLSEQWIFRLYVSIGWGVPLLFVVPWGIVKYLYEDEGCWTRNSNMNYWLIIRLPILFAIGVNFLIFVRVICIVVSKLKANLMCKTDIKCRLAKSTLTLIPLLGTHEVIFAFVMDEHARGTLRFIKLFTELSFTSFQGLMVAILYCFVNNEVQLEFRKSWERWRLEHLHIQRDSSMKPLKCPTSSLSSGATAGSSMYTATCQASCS

Row | Activity [3] | Compound | Activity [1] | Activity [2]
1 | – | SEMAGLUTIDE | Active | –
2 | Active | CC[C@H](C)[C@H](NC(=O)[C@H](Cc1ccccc1)NC(=O)[C@H](CCC(=O)O)NC(=O)[C@H](CC(=O)N[C@@H]1O[C@H](CO)[C@@H](O[C@@H]2O[C@H](CO)[C@@H](O[C@@H]3O[C@H](CO[C@H]4O[C@H](CO)[C@@H](O)[C@H](O)[C@@H]4O[C@@H]4O[C@H](CO)[C@@H](O[C@@H]5O[C@H](CO[C@]6(C(=O)O)C[C@H](O)[C@@H](NC(C)=O)[C@H]([C@H](O)[C@H](O)CO)O6)[C@H](O)[C@H](O)[C@H]5O)[C@H](O)[C@H]4NC(C)=O)[C@@H](O)[C@H](O[C@@H]4O[C@H](CO)[C@H](O)[C@@H](O)[C@H]4O[C@@H]4O[C@H](CO)[C@@H](O[C@@H]5O[C@H](CO[C@]6(C(=O)O)C[C@H](O)[C@@H](NC(C)=O)[C@H]([C@H](O)[C@H](O)CO)O6)[C@H](O)[C@H](O)[C@H]5O)[C@H](O)[C@H]4NC(C)=O)[C@@H]3O)[C@H](O)[C@H]2NC(C)=O)[C@H](O)[C@H]1NC(C)=O)NC(=O)[C@H](C)NC(=O)[C@H](C)NC(=O)[C@H](CCC(N)=O)NC(=O)CNC(=O)[C@H](CCC(=O)O)NC(=O)[C@H](CC(C)C)NC(=O)[C@H](Cc1ccc(O)cc1)NC(=O)[C@H](CO)NC(=O)[C@H](CO)NC(=O)[C@@H](NC(=O)[C@H](CC(=O)O)NC(=O)[C@H](CO)NC(=O)[C@@H](NC(=O)[C@H](Cc1ccccc1)NC(=O)[C@@H](NC(=O)CNC(=O)[C@H](CCC(=O)O)NC(=O)C(C)(C)NC(=O)[C@@H](N)Cc1c[nH]cn1)[C@@H](C)O)[C@@H](C)O)C(C)C)C(=O)N[C@@H](C)C(=O)N[C@@H](Cc1c[nH]c2ccccc12)C(=O)N[C@@H](CC(C)C)C(=O)N[C@H](C(=O)N[C@@H](CCCNC(=N)N)C(=O)NCC(=O)N[C@@H](CCCNC(=N)N)C(=O)NCC(=O)O)C(C)C | Active | Active

From ChEMBL document CHEMBL5543110, “Engineering of a Biologically Active Glycosylated Glucagon-Like Peptide-1 Analogue” (J Med Chem, 2024)
